These results are taken from patent US12209102B2, “Heterocyclic compounds and uses thereof” (Kumquat Biosciences Inc., priority 2022, dated 2025).

Where only a bound is given, the exact number is not on record here.

In one assay the target is T1, K-Ras G12D (Homo sapiens, UniProt P01116, G12D).
T1 construct: made in house; host or cells: E. coli BL21 (DE3)
Briefly: HTRF resonance energy transfer assay, K-Ras G12D / SOS1 interaction. It counts as biochemical. As to conditions: HTRF assay of Example 5; read-out: IC50 against K-Ras G12D. In short, it runs like this:
(§1)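 GST-tagged K-Ras (WT or mutant) bound to anti-GST-Eu donor was mixed with His-hSOS1 bound to anti-6His-XL665 acceptor in ~5 mM HEPES pH 7.4, 150 mM NaCl, 1 mM DTT, 0.05% BSA, 0.0025% Igepal. HTRF (ex 337, em 620/665 nm) was read after ~10 min or longer. IC50 came from the 665/620 ratio over duplicates from 10 μM to 0.01 μM.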
On the technique in general: TR-FRET usually uses a lanthanide donor and a delayed reading to cut background.

Another assay concerns the target T2, K-Ras G12S (Homo sapiens, UniProt P01116, G12S).
T2 construct: made in house; host or cells: E. coli BL21 (DE3)
Kind of assay: HTRF resonance energy transfer assay, K-Ras G12S / SOS1 interaction. The assay is classed as biochemical. To be noted: HTRF assay of Example 5; read-out: IC50 against K-Ras G12S. The method, boiled down: as §1

Another assay deals with T3, K-Ras G12V (Homo sapiens, UniProt P01116, G12V).
T3 construct: made in house; host or cells: E. coli BL21 (DE3)
T3 sequence (P01116 1-188 isoform P01116-2 G12V): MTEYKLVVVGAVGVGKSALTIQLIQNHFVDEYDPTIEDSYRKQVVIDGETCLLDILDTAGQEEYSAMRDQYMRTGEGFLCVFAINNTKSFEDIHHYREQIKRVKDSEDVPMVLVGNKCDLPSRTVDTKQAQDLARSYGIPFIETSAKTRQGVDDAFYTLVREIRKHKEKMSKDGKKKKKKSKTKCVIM
Kind of assay: HTRF resonance energy transfer assay, K-Ras G12V / SOS1 interaction. It counts as biochemical. As to conditions: HTRF assay of Example 5; read-out: IC50 against K-Ras G12V. The method, boiled down:
as §1

The next assay has as its target T4, K-Ras WT (Homo sapiens, UniProt P01116).
T4 construct: made in house; host or cells: E. coli BL21 (DE3)
Kind of assay: HTRF resonance energy transfer assay, K-Ras WT / SOS1 interaction. As to conditions: HTRF assay of Example 5; read-out: IC50 against K-Ras WT. It counts as biochemical. The method, boiled down: as §1

The next assay relates to A549 cells. Kind of assay: Ras cellular assay, growth of cells with K-Ras G12S mutation (CellTiter-Glo). It counts as cell-based. As to conditions: Homo sapiens, cell growth, Example 9, G12S mutation, read-out: IC50 against A549 cells. The method, boiled down: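 A549 cells (K-Ras G12S) in RPMI-1640 with 10% heat-inactivated FBS, seeded e.g. 800 per well in standard or ultra-low-attachment 384-well plates, treated next day with a dilution series (e.g. 10-point, 3-fold). Viability by CellTiter-Glo luminescence about 6 days later; IC50 from four-parameter fit.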
In general terms: ATP-based viability assays read luminescence as a measure of living cells.

The subject of a further assay is SW620 cells. Briefly: Ras cellular assay, growth of cells with K-Ras G12V mutation (CellTiter-Glo). It counts as cell-based. As to conditions: Homo sapiens, SW-620; cell growth, Example 9, G12V mutation; read-out: IC50 against SW620 cells. In short, it runs like this: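 SW620 (K-Ras G12V) cells, e.g. 800/well in RPMI-1640 with 10% heat-inactivated FBS on standard or ultra-low attachment plates, were dosed the day after plating with e.g. a 10-point 3-fold series. Viability by CellTiter-Glo luminescence about 6 days later; IC50 from four-parameter fit.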

T1 sequence (P01116 1-188 isoform P01116-2 G12D): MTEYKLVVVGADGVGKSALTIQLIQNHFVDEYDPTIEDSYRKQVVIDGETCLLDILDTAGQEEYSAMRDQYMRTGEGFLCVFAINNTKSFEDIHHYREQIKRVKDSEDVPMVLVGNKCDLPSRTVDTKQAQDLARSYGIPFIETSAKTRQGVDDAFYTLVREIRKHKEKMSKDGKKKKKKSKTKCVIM
T2 sequence (P01116 1-188 isoform P01116-2 G12S): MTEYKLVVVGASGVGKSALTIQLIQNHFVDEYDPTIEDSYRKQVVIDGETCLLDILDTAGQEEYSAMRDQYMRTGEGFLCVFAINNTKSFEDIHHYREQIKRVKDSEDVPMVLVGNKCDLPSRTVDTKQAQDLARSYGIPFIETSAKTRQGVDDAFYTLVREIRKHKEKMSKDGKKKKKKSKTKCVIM
T4 sequence (P01116 1-188 isoform P01116-2): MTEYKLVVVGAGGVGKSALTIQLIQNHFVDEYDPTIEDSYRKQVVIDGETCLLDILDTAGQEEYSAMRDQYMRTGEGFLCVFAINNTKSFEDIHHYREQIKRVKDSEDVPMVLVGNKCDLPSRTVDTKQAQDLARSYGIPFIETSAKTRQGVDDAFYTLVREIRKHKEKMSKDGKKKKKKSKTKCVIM

Take `N#CCCCN1CCOc2c(Cl)c(-c3ccc(F)c4sc(N)c(C#N)c34)c(F)c3nc(OC[C@@]45CCCN4C[C@H](F)C5)nc1c23` [Compound 837, 2-amino-4-(8-chloro-4-(3-cyanopropyl)-10-fluoro-2-(((2R,7aS)-2-fluorotetrahydro-1H-pyrrolizin-7a(5H)-yl)methoxy)-5,6-dihydro-4H-[1,4]oxazepino[5,6,7-de]quinazolin-9-yl)-7-fluorobenzo[b]thiophene-3-carbonitrile]: the IC50 (as a rule, the concentration at which inhibition is half-maximal) was under 100 nM on K-Ras G12D; under 100 nM on K-Ras G12S; under 100 nM on K-Ras G12V; under 100 nM at K-Ras WT; under 5000 nM in the assay on A549 cells; under 5000 nM in the assay with SW620 cells.
For `N#Cc1c(N)sc2c(F)ccc(-c3c(Cl)c4c5c(nc(OC[C@@]67CCCN6C[C@H](F)C7)nc5c3F)N(C3CCCCC3O)CCO4)c12` (stereo partly drawn) [Compound 838, 2-amino-4-(8-chloro-10-fluoro-2-(((2R,7aS)-2-fluorotetrahydro-1H-pyrrolizin-7a(5H)-yl)methoxy)-4-(2-hydroxycyclohexyl)-5,6-dihydro-4H-[1,4]oxazepino[5,6,7-de]quinazolin-9-yl)-7-fluorobenzo[b]thiophene-3-carbonitrile], the half-maximal inhibitory concentration (IC50) was under 100 nM on K-Ras G12D; under 100 nM at K-Ras G12S; under 100 nM at K-Ras G12V; under 100 nM at K-Ras WT; under 5000 nM with A549 cells; under 5000 nM in the assay with SW620 cells.
`C[C@H](Oc1nc2c3c(c(Cl)c(-c4ccc(F)c5sc(N)c(C#N)c45)c(F)c3n1)OCCN2C1CCN(C(=O)C2CC2C#N)CC1)[C@@H]1CCCN1C` (stereo partly drawn) [Compound 839, 2-amino-4-(8-chloro-4-(1-(trans-2-cyanocyclopropane-1-carbonyl)piperidin-4-yl)-10-fluoro-2-((S)-1-((S)-1-methylpyrrolidin-2-yl)ethoxy)-5,6-dihydro-4H-[1,4]oxazepino[5,6,7-de]quinazolin-9-yl)-7-fluorobenzo[b]thiophene-3-carbonitrile]: the IC50 at K-Ras G12D was under 100 nM; at K-Ras G12S, under 100 nM; on K-Ras G12V, under 100 nM; at K-Ras WT, under 100 nM; with A549 cells it was under 5000 nM; in the assay with SW620 cells it was under 5000 nM.
Regarding `CNC(=O)C1CCCC(N2CCOc3c(Cl)c(-c4ccc(F)c5sc(N)c(C#N)c45)c(F)c4nc(OC[C@@]56CCCN5C[C@H](F)C6)nc2c34)C1` (stereo partly drawn) [Compound 841, 3-(9-(2-amino-3-cyano-7-fluorobenzo[b]thiophen-4-yl)-8-chloro-10-fluoro-2-(((2R,7aS)-2-fluorotetrahydro-1H-pyrrolizin-7a(5H)-yl)methoxy)-5,6-dihydro-4H-[1,4]oxazepino[5,6,7-de]quinazolin-4-yl)-N-methylcyclohexane-1-carboxamide], the concentration for half-maximal inhibition (IC50) at K-Ras G12D is under 100 nM; on K-Ras G12S, under 100 nM; at K-Ras G12V, under 100 nM; on K-Ras WT it was under 100 nM; in the assay on A549 cells, under 5000 nM; in the assay with SW620 cells, under 5000 nM.
For `CNC(=O)C1CC(N2CCOc3c(Cl)c(-c4ccc(F)c5sc(N)c(C#N)c45)c(F)c4nc(OC[C@@]56CCCN5C[C@H](F)C6)nc2c34)C1` (stereo partly drawn) [Compound 859, 3-(9-(2-amino-3-cyano-7-fluorobenzo[b]thiophen-4-yl)-8-chloro-10-fluoro-2-(((2R,7aS)-2-fluorotetrahydro-1H-pyrrolizin-7a(5H)-yl)methoxy)-5,6-dihydro-4H-[1,4]oxazepino[5,6,7-de]quinazolin-4-yl)-N-methylcyclobutane-1-carboxamide], the IC50 is under 100 nM at K-Ras G12D; under 100 nM on K-Ras G12S; under 100 nM on K-Ras G12V; under 100 nM on K-Ras WT; under 5000 nM in the assay with A549 cells; under 5000 nM in the assay on SW620 cells.
As for `C[C@H](Oc1nc2c3c(c(Cl)c(-c4ccc(F)c5sc(N)c(C#N)c45)c(F)c3n1)OCCN2C1CCCN(C(=O)C2CCC2)C1)[C@@H]1CCCN1C` (stereo partly drawn) [Compound 862, 2-amino-4-(8-chloro-4-(1-(cyclobutanecarbonyl)piperidin-3-yl)-10-fluoro-2-((S)-1-((S)-1-methylpyrrolidin-2-yl)ethoxy)-5,6-dihydro-4H-[1,4]oxazepino[5,6,7-de]quinazolin-9-yl)-7-fluorobenzo[b]thiophene-3-carbonitrile], the IC50 on K-Ras G12D is under 100 nM; on K-Ras G12S it was under 100 nM; at K-Ras G12V, under 100 nM; at K-Ras WT, under 100 nM; with A549 cells, under 5000 nM; with SW620 cells it was under 5000 nM.
For the compound `C[C@H](Oc1nc2c3c(c(Cl)c(-c4ccc(F)c5sc(N)c(C#N)c45)c(F)c3n1)OCCN2C1CCCOC1)[C@@H]1CCCN1C` (stereo partly drawn) [Compound 880, 2-amino-4-(8-chloro-10-fluoro-2-((S)-1-((S)-1-methylpyrrolidin-2-yl)ethoxy)-4-(tetrahydro-2H-pyran-3-yl)-5,6-dihydro-4H-[1,4]oxazepino[5,6,7-de]quinazolin-9-yl)-7-fluorobenzo[b]thiophene-3-carbonitrile], the IC50 at K-Ras G12D was under 100 nM; at K-Ras G12S it was under 100 nM; at K-Ras G12V it was under 100 nM; on K-Ras WT, under 100 nM; in the assay with A549 cells it was under 5000 nM; in the assay with SW620 cells it was under 5000 nM.
Regarding `COCC1COc2c(Cl)c(-c3ccc(F)c4sc(N)c(C#N)c34)c(F)c3nc(OC[C@@]45CCCN4C[C@H](F)C5)nc(c23)N1C` (stereo partly drawn) [Compound 887, 2-amino-4-(8-chloro-10-fluoro-2-(((2R,7aS)-2-fluorotetrahydro-1H-pyrrolizin-7a(5H)-yl)methoxy)-5-(methoxymethyl)-4-methyl-5,6-dihydro-4H-[1,4]oxazepino[5,6,7-de]quinazolin-9-yl)-7-fluorobenzo[b]thiophene-3-carbonitrile], the IC50 on K-Ras G12D is under 100 nM; on K-Ras G12S, under 100 nM; on K-Ras G12V, under 100 nM; on K-Ras WT it was under 100 nM; in the assay with A549 cells it was under 5000 nM; in the assay with SW620 cells, under 5000 nM.
For `CN(CCN1CCOc2c(Cl)c(-c3ccc(F)c4sc(N)c(C#N)c34)c(F)c3nc(OC[C@@]45CCCN4C[C@H](F)C5)nc1c23)C(=O)C1CCC1` [Compound 895, N-(2-(9-(2-amino-3-cyano-7-fluorobenzo[b]thiophen-4-yl)-8-chloro-10-fluoro-2-(((2R,7aS)-2-fluorotetrahydro-1H-pyrrolizin-7a(5H)-yl)methoxy)-5,6-dihydro-4H-[1,4]oxazepino[5,6,7-de]quinazolin-4-yl)ethyl)-N-methylcyclobutanecarboxamide], the IC50 at K-Ras G12D is under 100 nM; on K-Ras G12S it was under 100 nM; at K-Ras G12V it was under 100 nM; at K-Ras WT, under 100 nM; in the assay with A549 cells, under 5000 nM; in the assay with SW620 cells, under 5000 nM.
As for `N#Cc1c(N)sc2c(F)ccc(-c3c(Cl)c4c5c(nc(OC[C@@]67CCCN6C[C@H](F)C7)nc5c3F)N(Cc3cccnc3)CCO4)c12` [Compound 897, 2-amino-4-(8-chloro-10-fluoro-2-(((2R,7aS)-2-fluorotetrahydro-1H-pyrrolizin-7a(5H)-yl)methoxy)-4-(pyridin-3-ylmethyl)-5,6-dihydro-4H-[1,4]oxazepino[5,6,7-de]quinazolin-9-yl)-7-fluorobenzo[b]thiophene-3-carbonitrile], the IC50 was under 100 nM at K-Ras G12D; under 100 nM at K-Ras G12S; under 100 nM at K-Ras G12V; under 100 nM on K-Ras WT; under 5000 nM in the assay with A549 cells; under 5000 nM with SW620 cells.
On to `N#Cc1c(N)sc2c(F)ccc(-c3c(Cl)c4c5c(nc(OCC67CCCN6C[C@H](F)C7)nc5c3F)N(C3CCCOCC3)CCO4)c12` (stereo partly drawn) [Compound 902, 2-amino-4-(8-chloro-10-fluoro-2-(((2R)-2-fluorotetrahydro-1H-pyrrolizin-7a(5H)-yl)methoxy)-4-(oxepan-4-yl)-5,6-dihydro-4H-[1,4]oxazepino[5,6,7-de]quinazolin-9-yl)-7-fluorobenzo[b]thiophene-3-carbonitrile], for which the IC50 at K-Ras G12D was under 100 nM; at K-Ras G12S, under 100 nM; on K-Ras G12V it was under 100 nM; at K-Ras WT, under 100 nM; in the assay with A549 cells, under 5000 nM; in the assay with SW620 cells it was under 5000 nM.
As for `Cc1cc(N)nc(-c2c(Cl)c3c4c(nc(OC[C@@]56CCCN5C[C@H](F)C6)nc4c2F)N(CC(F)F)CCO3)c1I` [Compound 909, 6-(8-chloro-4-(2,2-difluoroethyl)-10-fluoro-2-(((2R,7aS)-2-fluorotetrahydro-1H-pyrrolizin-7a(5H)-yl)methoxy)-5,6-dihydro-4H-[1,4]oxazepino[5,6,7-de]quinazolin-9-yl)-5-iodo-4-methylpyridin-2-amine], the IC50 was under 100 nM at K-Ras G12D; under 100 nM on K-Ras G12S; under 100 nM on K-Ras G12V; under 100 nM on K-Ras WT; under 5000 nM in the assay on A549 cells; under 5000 nM with SW620 cells.
